Tests used:
S. mutans [1] = test: zone of inhibition on blood agar, drop technique and line method (Example 2); assay type: cell-based, Streptococcus mutans; details: control, 3 ul of 20%; after 3 days of incubation
Procedure: (§1) Experimental Design: Blood agar (for the 3 anaerobic bacteria, 1 facultative bacterium and 1 aerobic yeast; Fisher Scientific) plates were individually swabbed with fresh 24 h broth cultures of C. albicans, P. gingivalis, P. intermedia, F. nucleatum and S. mutans to provide a confluent lawn of microbial growth. […] Assays were conducted in duplicate and undiluted and 1:5 and 1:10 dilutions of the solutions and sterile saline (negative control) were used. The plates were incubated agar-side up at 37° C. in a GasPak anaerobic jar or in 5% CO2 for 72 h. Plates were examined at 72 h for zones of inhibition of growth of the microbes. The diameter of each zone was measured in mm. The zones of inhibition of each dilution sample were compared to the zones of control saline without antimicrobial components. If the zones of the solutions were the same size (or smaller) than the inhibition zones from the control saline than there was judged no inhibition of antimicrobial activity by the antimicrobial solutions. Conversely, if the zones of the solutions were larger than the inhibition zones from the control saline than there was judged significant antimicrobial activity by the solutions. It was anticipated that there will be significant inhibition of microbial growth by at least some of the antimicrobial wheat grass products. […]

P. gingivalis [2] = test: as above; assay type: cell-based, Porphyromonas gingivalis; details: control, 3 ul of 20%; after 3 days of incubation
Procedure: Experimental Design: Blood agar (for the 3 anaerobic bacteria, 1 facultative bacterium and 1 aerobic yeast; Fisher Scientific) plates were individually swabbed with fresh 24 h broth cultures of C. albicans, P. gingivalis, P. intermedia, F. nucleatum and S. mutans to provide a confluent lawn of microbial growth. Five minutes after swabbing the plates (to allow the inoculum to absorb into the agar), the test and control specimens ([…]) onto designated places on the plates and allowed to adsorb (or adhere, in the case of the undiluted sera) into the agar. Assays were conducted in duplicate and undiluted and 1:5 and 1:10 dilutions of the solutions and sterile saline (negative control) were used. The plates were incubated agar-side up at 37° C. in a GasPak anaerobic jar or in 5% CO2 for 72 h. Plates were examined at 72 h for zones of inhibition of growth of the microbes. The diameter of each zone was measured in mm. The zones of inhibition of each dilution sample were compared to the zones of control saline without antimicrobial components. If the zones of the solutions were the same size (or smaller) than the inhibition zones from the control saline than there was judged no inhibition of antimicrobial activity by the antimicrobial solutions. […]

P. intermedia [3] = test: as above; assay type: cell-based, Prevotella intermedia; details: control, 3 ul of 20%; after 3 days of incubation
Procedure: Experimental Design: Blood agar (for the 3 anaerobic bacteria, 1 facultative bacterium and 1 aerobic yeast; Fisher Scientific) plates were individually swabbed with fresh 24 h broth cultures of C. albicans, P. gingivalis, P. intermedia, F. nucleatum and S. mutans to provide a confluent lawn of microbial growth. Five minutes after swabbing the plates (to allow the inoculum to absorb into the agar), the test and control specimens ([…] adhere, in the case of the undiluted sera) into the agar. Assays were conducted in duplicate and undiluted and 1:5 and 1:10 dilutions of the solutions and sterile saline (negative control) were used. The plates were incubated agar-side up at 37° C. in a GasPak anaerobic jar or in 5% CO2 for 72 h. Plates were examined at 72 h for zones of inhibition of growth of the microbes. The diameter of each zone was measured in mm. The zones of inhibition of each dilution sample were compared to the zones of control saline without antimicrobial components. If the zones of the solutions were the same size (or smaller) than the inhibition zones from the control saline than there was judged no inhibition of antimicrobial activity by the antimicrobial solutions. Conversely, if the zones of the solutions were larger than the inhibition zones from the control saline than there was judged significant antimicrobial activity by the solutions. […]

F. nucleatum [4] = test: as above; assay type: cell-based, Fusobacterium nucleatum; details: control, 3 ul of 20%; after 3 days of incubation
Procedure: as §1

S. mutans [5] = test: zone of inhibition on blood agar, drop technique and line method (Example 3); assay type: cell-based, Streptococcus mutans; details: control spot, dilution not given; after 5 days of incubation
Procedure: (§2) Experimental Design: Blood agar (for the 3 anaerobic bacteria, 3 facultative bacteria and 1 aerobic yeast; Fisher Scientific) plates were individually swabbed with fresh 24 h broth cultures of C. rectus, Aggregatibacter actinomycetemcomitans (A.a), C. albicans, P. gingivalis, P. intermedia, F. nucleatum and S. mutans to provide a confluent lawn of microbial growth. Five minutes after swabbing the plates (to allow the inoculum to absorb into the agar), the test and control specimens (see below) were aseptically pipetted (5 ul) onto designated places on the plates and allowed to adsorb (or adhere, in the case of the undiluted sera) into the agar. Assays were conducted in duplicate and undiluted and 1:5 and 1:10 dilutions of the solutions and sterile saline (negative control) and chlorhexidine (CHX) were used. […] The diameter of each zone was measured in mm. The zones of inhibition of each dilution sample were compared to the zones of control saline without antimicrobial components. If the zones of the solutions were the same size (or smaller) than the inhibition zones from the control saline than there was judged no inhibition of antimicrobial activity by the antimicrobial solutions. Conversely, if the zones of the solutions were larger than the inhibition zones from the control saline than there was judged significant antimicrobial activity by the solutions. […]

C. albicans = test: as above; assay type: cell-based, Candida albicans; details: control spot, dilution not given; after 5 days of incubation
Procedure: as §2

P. gingivalis [6] = test: as above; assay type: cell-based, Porphyromonas gingivalis; details: control spot, dilution not given; after 5 days of incubation
Procedure: as §2

P. intermedia [7] = test: as above; assay type: cell-based, Prevotella intermedia; details: control spot, dilution not given; after 5 days of incubation
Procedure: as §2

F. nucleatum [8] = test: as above; assay type: cell-based, Fusobacterium nucleatum; details: control spot, dilution not given; after 5 days of incubation
Procedure: as §2

[9] = test system: Aggregatibacter actinomycetemcomitans (A.a); test: as above; assay type: cell-based; details: control spot, dilution not given; after 5 days of incubation
Procedure: as §2

C. rectus = test: as above; assay type: cell-based, Campylobacter rectus; details: control spot, dilution not given; after 5 days of incubation
Procedure: as §2, with “The” for “The diameter of each zone was measured in mm. The”

[10] = test system: C. rectus, Aggregatibacter actinomycetemcomitans (A.a), C. albicans, P. gingivalis, P. intermedia, F. nucleatum and S. mutans; test: in vitro antimicrobial activity, summary over the seven microbes (Example 3); assay type: cell-based; details: overall summary of Example 3
Procedure: Experimental Design: Blood agar (for the 3 anaerobic bacteria, 3 facultative bacteria and 1 aerobic yeast; Fisher Scientific) plates were individually swabbed with fresh 24 h broth cultures of C. rectus, Aggregatibacter actinomycetemcomitans (A.a), C. albicans, P. gingivalis, P. intermedia, F. nucleatum and S. mutans to provide a confluent lawn of microbial growth. Five minutes after swabbing the plates (to allow the inoculum to absorb into the agar), the test and control specimens (see below) were aseptically pipetted (5 ul) onto designated places on the plates and allowed to adsorb (or adhere, in the case of the undiluted sera) into the agar. Assays were conducted in duplicate and undiluted and 1:5 and 1:10 dilutions of the solutions and sterile saline (negative control) and chlorhexidine (CHX) were used. The plates were incubated agar-side up at 37° C. in a GasPak anaerobic jar or in 5% CO2 for 72 h. Plates were examined at 72 h for zones of inhibition of growth of the microbes. The diameter of each zone was measured in mm. The zones of inhibition of each dilution sample were compared to the zones of control saline without antimicrobial components. If the zones of the solutions were the same size (or smaller) than the inhibition zones from the control saline than there was judged no inhibition of antimicrobial activity by the antimicrobial solutions. […]

In the case of `[H]/N=C(\N/C(=N/[H])NCCCCCCNC(=N)NC(=N)Nc1ccc(Cl)cc1)Nc1ccc(Cl)cc1` [Chlorhexidine, chlorhexidine], the zone of inhibition (S. mutans [1]) was 19 mm, the zone of inhibition (P. gingivalis [2]) was 25 mm and the zone of inhibition (P. intermedia [3]) was 24 mm. The zone of inhibition (F. nucleatum [4]) was 40 mm, the “diameter of zone of inhibition” value (S. mutans [5]) was 16 mm and the “circumference of zone of inhibition” value (C. albicans) was 20 mm. For the same compound, the “circumference of zone of inhibition” value (P. gingivalis [6]) was 14 mm, the “diameter of zone of inhibition” value (P. intermedia [7]) was 20 mm and the “circumference of zone of inhibition” value (F. nucleatum [8]) was 15 mm. For the same compound, the “circumference of zone of inhibition” value [9] was 11 mm, the “circumference of zone of inhibition” value (C. rectus) was 16 mm and the “inhibition of growth of the seven species, in words” value [10] was “inhibited the microbial growth of each species”.
